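Where inhibition never reached the appropriate level, the endpoint shown equals the highest concentration tested. Otherwise, values were interpolated linearly from a five-concentration, 48-hour dose response in 96-well plates. The concentration for full growth arrest is given as TGI.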
Experiments:
Assay in all cases: NCI tumour cell line growth inhibition, 48 h
DLD-1 colon = tested on: DLD-1 colon
P388 leukemia = tested on: P388 leukemia
HOP-18 NSCLC = tested on: HOP-18 NSCLC
P388/ADR leukemia = tested on: P388/ADR leukemia
SN12K1 renal = tested on: SN12K1 renal
HS 578T breast = tested on: HS 578T breast
786-0 renal = tested on: 786-0 renal
T-47D breast = tested on: T-47D breast
MDA-MB-231 breast = tested on: MDA-MB-231 breast
MDA-MB-435 = tested on: MDA-MB-435
SNB-78 CNS = tested on: SNB-78 CNS
RXF-631 renal = tested on: RXF-631 renal

COc1ccc(N[C@@H]2c3cc4c(cc3C(c3cc(OC)c(O)c(OC)c3)[C@H]3C(=O)OCC32)OCO4)cc1OC (stereo not given in full)
TGI (DLD-1 colon): > 25.7 µM
TGI (P388 leukemia): 10.9 µM
TGI (HOP-18 NSCLC): > 64.2 µM
TGI (P388/ADR leukemia): 10.3 µM
TGI (SN12K1 renal): > 34.8 µM

COc1cc(C(=O)OC2CC34CCNC35CC(OC5(OC)C2O)c2cc3c(cc24)OCO3)ccc1O (stereo not given)
TGI (HS 578T breast): > 100 µM
TGI (786-0 renal): > 100 µM
TGI (T-47D breast): > 100 µM
TGI (MDA-MB-231 breast): > 100 µM
TGI (MDA-MB-435): > 100 µM

S=C1Cc2c(-c3ccccc3)cc(-c3ccc(Cl)cc3)nc2-c2ccccc2N1
TGI (HS 578T breast): 4.23 µM
TGI (T-47D breast): > 57.3 µM
TGI (MDA-MB-231 breast): 5.22 µM
TGI (MDA-MB-435): > 38.8 µM

C[Si](C)(C)/C=C/CN1C(=O)CCC1=O
TGI (DLD-1 colon): > 100 µM
TGI (HOP-18 NSCLC): > 100 µM
TGI (SNB-78 CNS): > 100 µM

COC(=O)c1cc2c(cc1C(=O)OC)[C@@]1(C)CCCC(C)(C)C1CC2 (stereo not given in full)
TGI (HS 578T breast): 44.9 µM
TGI (786-0 renal): 36.7 µM
TGI (T-47D breast): 9.58 µM
TGI (MDA-MB-231 breast): 41.8 µM
TGI (MDA-MB-435): > 100 µM

Cc1ccc(CN2CCN(Cc3ccc(C)o3)C(C)C2)o1 (stereo not given)
TGI (HS 578T breast): > 100 µM
TGI (786-0 renal): > 100 µM
TGI (T-47D breast): > 100 µM
TGI (MDA-MB-231 breast): > 100 µM
TGI (MDA-MB-435): > 100 µM

CC(=O)c1cccc(Nc2nc3ccccc3c3[nH]c4ccccc4c23)c1
TGI (HS 578T breast): > 100 µM
TGI (786-0 renal): 11.7 µM
TGI (T-47D breast): 33.5 µM
TGI (MDA-MB-231 breast): 51.6 µM
TGI (MDA-MB-435): 71.1 µM

N#CCCN(CCC#N)c1ccc(/C=C(/NC(=O)Nc2ccccc2Cl)NC(=O)c2cc([N+](=O)[O-])ccc2Cl)cc1
TGI (DLD-1 colon): > 100 µM
TGI (RXF-631 renal): > 100 µM
TGI (HOP-18 NSCLC): > 100 µM
TGI (SNB-78 CNS): > 100 µM

O=S(=O)(CF)OCCCCOS(=O)(=O)CF
TGI (RXF-631 renal): > 100 µM
TGI (HOP-18 NSCLC): > 100 µM
TGI (SNB-78 CNS): > 100 µM

CCCCCCCCCCCCCCCCCCOCC(O)CO (stereo not given)
TGI (DLD-1 colon): > 25 µM
TGI (P388 leukemia): > 14.1 µM
TGI (HOP-18 NSCLC): > 2.5 µM
TGI (SNB-78 CNS): > 25 µM
TGI (P388/ADR leukemia): > 25 µM
TGI (SN12K1 renal): > 25 µM

Source: PubChem BioAssay (NCI)
